ChEMBL document CHEMBL1149054, “Isolation and structure of harzianum A: a new trichothecene from Trichoderma harzianum” (J Nat Prod, 1994)
Calls of active or inactive are those of the source. The rule behind the calls is not given here.

Assays:
[1] = Cytotoxicity against BHK cells upto 1 ug/ml; format: cell-based, Mesocricetus auratus; conditions: hamster
Escherichia coli = assay: Antimicrobial activity against Escherichia coli at 1 mg/ml; format: functional, organism-based
Micrococcus luteus = assay: Antimicrobial activity against Micrococcus luteus at 1 mg/ml; format: functional, organism-based
Staphylococcus aureus = assay: Antimicrobial activity against Staphylococcus aureus at 1 mg/ml; format: functional, organism-based

CC1=C[C@H]2O[C@@H]3C[C@@H](OC(=O)\C=C/C=C/C=C/C(=O)O)[C@](C)([C@@]2(C)CC1)[C@]31CO1 [HARZIANUM A]
Activity [1]: Non-toxic | Activity (Escherichia coli): inactive | Activity (Micrococcus luteus): inactive | Activity (Staphylococcus aureus): inactive
